Experimental data reported in patent US20070155660A1, “Inhibition of voluntary ethanol consumption with selective melanocortin 4-receptor agonists” (priority 2003, published 2007).
Bridge positions count the residues as written; N and C are the ends. Square brackets hold non-standard residues; d marks the D form. Peptide text beside a SMILES is read from it. βAla = NCCC(=O)O

Experiments:
hMC-3R [1] = target: T1, hMC-3R (Homo sapiens, UniProt P41968); assay: Competitive binding assay, [125I]-NDP-α-MSH, CHO cell membranes; conditions: read-out: Binding Assay IC50 hMC-3R
T1 construct: expressed in transfected cells; host or cells: Chinese hamster ovary (CHO) cells
T1 sequence (P41968 whole entry): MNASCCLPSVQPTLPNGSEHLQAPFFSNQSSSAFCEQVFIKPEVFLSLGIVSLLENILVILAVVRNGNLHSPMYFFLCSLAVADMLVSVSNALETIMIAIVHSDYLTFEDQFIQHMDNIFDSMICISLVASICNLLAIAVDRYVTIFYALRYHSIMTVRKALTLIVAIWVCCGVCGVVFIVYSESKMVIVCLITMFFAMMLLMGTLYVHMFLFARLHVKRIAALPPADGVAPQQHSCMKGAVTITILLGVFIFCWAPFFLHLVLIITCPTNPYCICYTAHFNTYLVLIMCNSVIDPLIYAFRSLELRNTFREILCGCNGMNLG
Protocol: The peptides of the present invention were evaluated for […] in receptor binding assay. Crude membrane preparations were obtained from Chinese hamster ovary cells expressing human MC3, MC4, and MC5 receptors. Cells were rinsed with phosphate-buffered saline (PBS) lacking CaCl2 or MgCl2 (Life Technologies, Gaithersburg, Md., USA), and then detached with enzyme-free dissociation media (Specialty Media, Lavellette, N.J., USA). Cells were pelleted at 2800×g for 10 minutes and resuspended in membrane buffer (20 mM Tris, pH 7.2, 5 mM ethylenediaminetetraacetic acid) with 5 μg/ml leupeptin, 5 μg/ml aprotinin, 40 μg/ml bacitracin, and 25 μg/m pefabloc (Boehringer Mannheim). […]
Binding reactions (total volume=[…]) contained MBB (50 mM Tris, pH 7.2, 2 mM CaCl2, 1 mM MgCl2), 0.1% bovine serum albumin, crude membranes prepared from cells expressing human MC3, MC4, or MC5 receptor, 200 pM of [125I]-NDP-α-MSH (Amersham, Arlington Heighs, Ill., USA), and increasing concentrations of unlabeled test compounds dissolved in dimethylsulfoxide (final concentration=2%). […] Filters were washed 3 times with TNE buffer (50 mM Tris, pH 7.4, 5 mM ethylenediaminetetraacetic acid, 150 mM NaCl), dried and counted by using Microscint-20 in a Topcount scintillation counter (Packard). Nonspecific binding was determined in the presence of 2 μm of unlabeled NDP-α-MSH (Peninsula Laboratories). […]

hMC-1R = target: T2, hMC-1R (Homo sapiens, UniProt Q01726); assay: cAMP assay in CHO cells expressing a human melanocortin receptor; assay type: cell-based
T2 construct: expressed in transfected cells; host or cells: Chinese hamster ovary (CHO) cells
T2 sequence (Q01726 whole entry): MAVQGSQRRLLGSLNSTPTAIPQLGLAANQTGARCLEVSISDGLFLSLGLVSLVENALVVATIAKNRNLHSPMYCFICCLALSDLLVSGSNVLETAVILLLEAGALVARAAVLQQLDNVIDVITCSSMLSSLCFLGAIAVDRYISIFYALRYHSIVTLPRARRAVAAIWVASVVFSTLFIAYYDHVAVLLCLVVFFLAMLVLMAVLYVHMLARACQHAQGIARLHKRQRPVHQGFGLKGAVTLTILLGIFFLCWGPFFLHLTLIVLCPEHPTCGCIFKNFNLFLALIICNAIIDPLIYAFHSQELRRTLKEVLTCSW
Protocol: (§1) Chinese hamster ovary cells expressing a human melanocortin receptor were rinsed with calcium-and magnesium-free PBS (Life Technologies), and detached from the tissue culture flasks by 5-minutes incubation with enzyme-free dissociation buffer (S-014-B, Specialty Media). Cells were collected by centrifugation and resuspended in Earle's balanced salt solution (Life Technologies) with addition of 10 mM 4-(2-hydroxyethyl)-1-piperazineethanesulfonic acid (Hepes) buffer, pH 7.5, 5 mM MgCl2, 1 mM glutamine, and 1 mg/ml bovine serum albumin to concentration of 1-5×10^6 cells/ml. Subsequently, cells were counted and the cell suspension was treated with the phosphodiesterase inhibitor 3-isobutyl-1-methylxanthine (to concentration of 0.6 mM).
(§2) A test compound was dissolved in dimethyl sulfoxide (DMSO, 10^−3 to 10^−8 M), diluted with buffer and 0.1 volume of the solution was added to 0.9 volumes of the cell suspension (1 to 5×10^5 cells); final concentration of DMSO was 1%. After 45 minutes at room temperature, cells were lysed by incubation at 100° C. for 5 minutes to release accumulated cAMP. Accumulation of cAMP was measured in an aliquot of the cell lysate with the Amersham (Arlington Heights, Ill.) cAMP detection assay kit (RPA556). The amount of cAMP produced in response to a tested compound was compared to the amount of cAMP produced in response to α-MSH, defined as a 100% agonist. […]

hMC-3R [2] = target: T1, hMC-3R; assay: as above; assay type: cell-based
Protocol: as §1, §2

MC4R [3] = target: T3, MC4R (Homo sapiens, UniProt P32245); assay: Competitive binding assay, [125I]-NDP-α-MSH, CHO cell membranes; parameters: expressed in transfected cells; host or cells: Chinese hamster ovary (CHO) cells
T3 sequence (P32245 whole entry): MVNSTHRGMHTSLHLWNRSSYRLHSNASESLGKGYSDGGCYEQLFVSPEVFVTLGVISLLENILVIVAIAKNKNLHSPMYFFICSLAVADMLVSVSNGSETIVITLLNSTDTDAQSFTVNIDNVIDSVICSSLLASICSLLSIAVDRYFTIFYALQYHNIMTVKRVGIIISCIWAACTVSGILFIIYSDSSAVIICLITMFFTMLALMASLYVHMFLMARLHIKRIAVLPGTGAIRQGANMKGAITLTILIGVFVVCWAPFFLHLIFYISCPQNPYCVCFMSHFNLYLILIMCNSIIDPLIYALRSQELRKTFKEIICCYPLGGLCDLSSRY
Protocol: (§3) The peptides of the present invention were evaluated for […] in receptor binding assay. Crude membrane preparations were obtained from Chinese hamster ovary cells expressing human MC3, MC4, and MC5 receptors. Cells were rinsed with phosphate-buffered saline (PBS) lacking CaCl2 or MgCl2 (Life Technologies, Gaithersburg, Md., USA), and then detached with enzyme-free dissociation media (Specialty Media, Lavellette, N.J., USA). Cells were pelleted at 2800×g for 10 minutes and resuspended in membrane buffer (20 mM Tris, pH 7.2, 5 mM ethylenediaminetetraacetic acid) with 5 μg/ml leupeptin, 5 μg/ml aprotinin, 40 μg/ml bacitracin, and 25 μg/m pefabloc (Boehringer Mannheim). The cells were […] with 10 strokes by using a motor-driven Teflon-coated pestle in a glass homogenizer at low speed. The resulting cell suspension was centrifuged at 4100×g, 4° C., for 20 minutes. The pellet was resuspended in fresh membrane buffer with protease inhibitors, aliquoted, snap-frozen in liquid nitrogen, and stored at −80° C. The resulting crude membranes were titrated to determine the optimal level necessary for performing binding studies. Results
(§4) Binding reactions (total volume=[…]) contained MBB (50 mM Tris, pH 7.2, 2 mM CaCl2, 1 mM MgCl2), 0.1% bovine serum albumin, crude membranes prepared from cells expressing human MC3, MC4, or MC5 receptor, 200 pM of [125I]-NDP-α-MSH (Amersham, Arlington Heighs, Ill., USA), and increasing concentrations of unlabeled test compounds dissolved in dimethylsulfoxide (final concentration=2%). Reactions were incubated for 1 hour without shaking and then filtered through 96-well filter plates (Packard), presoaked in 1% polyethyleneimine. Filters were washed 3 times with TNE buffer (50 mM Tris, pH 7.4, 5 mM ethylenediaminetetraacetic acid, 150 mM NaCl), dried and counted by using Microscint-20 in a Topcount scintillation counter (Packard). Nonspecific binding was determined in the presence of 2 μm of unlabeled NDP-α-MSH (Peninsula Laboratories). Active peptides were evaluated in three independent experiments.

MC5R [4] = target: T4, MC5R (Homo sapiens, UniProt P33032); assay: as above; parameters: expressed in transfected cells; host or cells: Chinese hamster ovary (CHO) cells; conditions: read-out: Binding Assay IC50 hMC-5R
T4 sequence (P33032 whole entry): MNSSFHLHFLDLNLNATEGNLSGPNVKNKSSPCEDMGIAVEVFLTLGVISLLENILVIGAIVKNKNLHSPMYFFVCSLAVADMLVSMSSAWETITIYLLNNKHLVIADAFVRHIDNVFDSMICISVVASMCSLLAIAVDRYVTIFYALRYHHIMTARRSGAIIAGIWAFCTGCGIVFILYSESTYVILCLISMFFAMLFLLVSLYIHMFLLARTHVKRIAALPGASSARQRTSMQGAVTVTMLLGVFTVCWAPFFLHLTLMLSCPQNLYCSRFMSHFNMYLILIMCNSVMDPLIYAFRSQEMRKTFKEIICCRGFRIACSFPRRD
Protocol: as §3, §4

MC4R [5] = target: T3, MC4R; assay: cAMP assay in CHO cells expressing a human melanocortin receptor; assay type: cell-based; parameters: expressed in transfected cells; host or cells: Chinese hamster ovary (CHO) cells
Protocol: as §1
(§5) A test compound was dissolved in dimethyl sulfoxide (DMSO, 10^−3 to 10^−8 M), diluted with buffer and 0.1 volume of the solution was added to 0.9 volumes of the cell suspension (1 to 5×10^5 cells); final concentration of DMSO was 1%. After 45 minutes at room temperature, cells were lysed by incubation at 100° C. for 5 minutes to release accumulated cAMP. Accumulation of cAMP was measured in an aliquot of the cell lysate with the Amersham (Arlington Heights, Ill.) cAMP detection assay kit (RPA556). The amount of cAMP produced in response to a tested compound was compared to the amount of cAMP produced in response to α-MSH, defined as a 100% agonist. All active peptides were characterized in three independent experiments.

MC5R [6] = target: T4, MC5R; assay: as above; assay type: cell-based; parameters: expressed in transfected cells; host or cells: Chinese hamster ovary (CHO) cells
Protocol: as §1, §5

SMILES: N=C(N)NCCC[C@@H]1NC(=O)[C@@H](Cc2ccccc2)NC(=O)[C@H](Cc2c[nH]cn2)NC(=O)CCNC(=O)CC[C@@H](C(N)=O)NC(=O)[C@H](Cc2c[nH]c3ccccc23)NC1=O [Example 8] ([βAla]H[dF]RWE-NH2; lactam N-6 (inferred))
- IC50 (hMC-3R [1]): 490 nM
- EC50 (hMC-1R): 11 nM
- EC50 (hMC-3R [2]): 59 nM
- Selectivity Binding IC50 3R/4R (MC4R [3]; ratio of IC50 hMC-3R / hMC-4R): 122.5
- Selectivity Binding IC50 5R/4R (MC4R [3]; ratio of IC50 hMC-5R / hMC-4R): 1150
- IC50 (MC4R [3]; read-out: Binding Assay IC50 hMC-4R): 4 nM
- IC50 (MC5R [4]): 4600 nM
- EC50 (MC4R [5]): 0.53 nM
- Selectivity cAMP EC50 1R/4R (MC4R [5]; ratio of EC50 hMC-1R / hMC-4R): 20.75
- Selectivity cAMP EC50 3R/4R (MC4R [5]; ratio of EC50 hMC-3R / hMC-4R): 111
- Selectivity cAMP EC50 5R/4R (MC4R [5]; ratio of EC50 hMC-5R / hMC-4R): 3585
- EC50 (MC5R [6]): 1900 nM
